Measurements taken from US9199967B2, “Substituted heterocyclic amine compounds as cholestryl ester-transfer protein (CETP) inhibitors” (Dr. Reddy's Laboratories Ltd., priority 2011, dated 2015).

Molecular target: T1, rCETP (Homo sapiens, UniProt P11597)
T1 sequence (P11597 18-493): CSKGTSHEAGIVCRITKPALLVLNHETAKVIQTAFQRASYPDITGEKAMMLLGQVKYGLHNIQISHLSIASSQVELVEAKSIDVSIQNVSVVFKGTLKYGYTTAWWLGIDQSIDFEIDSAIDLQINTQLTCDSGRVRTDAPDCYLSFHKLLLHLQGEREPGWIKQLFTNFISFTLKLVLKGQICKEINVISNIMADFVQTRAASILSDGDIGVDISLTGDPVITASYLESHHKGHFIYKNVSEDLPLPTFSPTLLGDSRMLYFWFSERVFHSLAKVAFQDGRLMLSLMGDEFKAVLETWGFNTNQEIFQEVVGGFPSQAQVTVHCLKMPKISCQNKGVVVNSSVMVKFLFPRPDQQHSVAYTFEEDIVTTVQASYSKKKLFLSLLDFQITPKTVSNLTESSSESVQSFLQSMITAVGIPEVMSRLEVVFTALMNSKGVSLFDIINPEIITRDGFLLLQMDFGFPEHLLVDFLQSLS
Assay: In vitro CETP inhibition assay, fluorometric kit (ROAR Biomedicals)
Format: biochemical
Details: rCETP 50 ng, 37° C., 90 minutes, fluorescence Ex 492 nm / Em 516 nm; read-out: IC50 (nM), inhibitory effect on CETP
From the text: An in vitro cholesteryl ester transfer protein inhibition (CETP) assay using a commercially available fluorometric assay kit from ROAR Biomedicals, USA was used to measure the CETP inhibition activity of the compounds of this application. This assay kit uses a donor molecule containing a fluorescent self-quenched neutral lipid that is transferred to an acceptor molecule in the presence of CETP enzyme. The CETP-mediated transfer of the fluorescent neutral lipid to the acceptor molecule results in an increase in fluorescence (Excitation: 492 nm; Emission: 516 nm).
A 20 mM stock solution of compounds were prepared in 100% DMSO and further dilutions were made such that the final concentration of DMSO in the reaction mix was 1%. […] The assay was performed in 96 well microplates and in each well, the reaction mixture contained 190 μl of assay buffer (150 mM NaCl, 10 mM Tris and 2 mM EDTA, pH-7.4), 4 μl of donor particle, 4 IA of acceptor particle, rCETP (50 ng) and 2 μl of test compound at varying final concentration of 0.1, 1, 10, 100, 1000 & 10000 nM. Two control reactions were performed, one without test compound (positive control) and the other without the rCETP (negative control). The reactions were incubated at 37° C. for 90 minutes and the reaction plate was transferred to a PCR machine MX3005P and the fluorescence units (FLU) were quantified (Excitation: 492 nm; Emission: 516 nm).
The negative control values were subtracted from the positive control as well as all the test values to correct for background fluorescence. The percentage inhibition of activity is calculated by using the following equation: % Inhibition of CETP activity=[100−(100×(FLU in test/FLU in positive control))].
The half maximal inhibitory concentration (IC50) was determined using the BIOGRAPH software (version no. 3.3).

| Structure (SMILES) | IC50 [nM] |
| --- | --- |
| CC1(C)CCc2cc(CN(Cc3cc(C(F)(F)F)cc(C(F)(F)F)c3)c3ncc(N4CCCC4=O)cn3)c(N(CC3CC3)CC3CC3)nc21 [Example 2, 1-(2-(((2-(bis(cyclopropylmethyl)amino)-7,7-dimethyl-6,7-dihydro-5H-cyclopenta[b]pyridin-3-yl)methyl)(3,5-bis(trifluoromethyl)benzyl)amino)pyrimidin-5-yl) pyrrolidin-2-one] | ~29 |
| CC1(C)CCc2cc(CN(Cc3cc(C(F)(F)F)cc(C(F)(F)F)c3)c3ncc(N4CCOCC4)cn3)c(N(CC3CC3)CC3CC3)nc21 [Example 3, 3-(((3,5-bis(trifluoromethyl)benzyl)(5-morpholinopyrimidin-2-yl)amino)methyl)-N,N-bis(cyclopropylmethyl)-7,7-dimethyl-6,7-dihydro-5H-cyclopenta[b]pyridin-2-amine] | ~20 |
| CC(=O)c1cnc(N(Cc2cc(C(F)(F)F)cc(C(F)(F)F)c2)Cc2cc3c(nc2N(CC2CC2)CC2CC2)C(C)(C)CC3)nc1 [Example 4, 1-(2-(((2-(bis(cyclopropylmethyl)amino)-7,7-dimethyl-6,7-dihydro-5H-cyclopenta[b]pyridin-3-yl)methyl)(3,5-bis(trifluoromethyl)benzyl)amino)pyrimidin-5-yl)ethanone] | ~50 |
| CC1(C)CCc2cc(CN(Cc3cc(C(F)(F)F)cc(C(F)(F)F)c3)c3ncc(-c4cc[nH]n4)cn3)c(N(CC3CC3)CC3CC3)nc21 [Example 6, 3-(((5-(1H-pyrazol-3-yl)pyrimidin-2-yl)(3,5-bis(trifluoromethyl)benzyl)amino)methyl)-N,N-bis(cyclopropylmethyl)-7,7-dimethyl-6,7-dihydro-5H-cyclopenta[b]pyridin-2-amine] | ~29 |
| CC1(C)CCc2cc(CN(Cc3cc(C(F)(F)F)cc(C(F)(F)F)c3)c3ncc(-c4ccon4)cn3)c(N(CC3CC3)CC3CC3)nc21 [Example 7, 3-(((3,5-bis(trifluoromethyl)benzyl)(5-(isoxazol-3-yl)pyrimidin-2-yl)amino)methyl)-N,N-bis(cyclopropylmethyl)-7,7-dimethyl-6,7-dihydro-5H-cyclopenta[b]pyridin-2-amine] | ~33 |
| CC1(C)CCc2cc(CN(Cc3cc(C(F)(F)F)cc(C(F)(F)F)c3)c3ncc(C(N)=O)cn3)c(N(CC3CC3)CC3CC3)nc21 [Example 9, 2-(((2-(bis(cyclopropylmethyl)amino)-7,7-dimethyl-6,7-dihydro-5H-cyclopenta[b]pyridin-3-yl)methyl)(3,5-bis(trifluoromethyl)benzyl)amino) pyrimidine-5-carboxamide] | ~94 |
| CC1CCc2cc(CN(Cc3cc(C(F)(F)F)cc(C(F)(F)F)c3)c3ncc(N4CCOCC4)cn3)c(N(CC3CC3)CC3CC3)nc21 (stereo not drawn) [Example 10, 3-(((3,5-bis(trifluoromethyl)benzyl)(5-morpholinopyrimidin-2-yl)amino)methyl)-N,N-bis(cyclopropylmethyl)-7-methyl-6,7-dihydro-5H-cyclopenta[b]pyridin-2-amine] | ~90 |
| CC1CCCc2cc(CN(Cc3cc(C(F)(F)F)cc(C(F)(F)F)c3)c3ncc(N4CCOCC4)cn3)c(N(CC3CC3)CC3CC3)nc21 (stereo not drawn) [Example 11, 3-(((3,5-bis(trifluoromethyl)benzyl)(5-morpholinopyrimidin-2-yl)amino)methyl)-N,N-bis(cyclopropylmethyl)-8-methyl-5,6,7,8-tetrahydroquinolin-2-amine] | ~40 |
| CC1(C)CCc2cc(CN(Cc3cc(C(F)(F)F)cc(C(F)(F)F)c3)c3ccc4[nH]c(=O)oc4c3)c(N(CC3CC3)CC3CC3)nc21 [Example 17, 6-(((2-(bis(cyclopropylmethyl)amino)-7,7-dimethyl-6,7-dihydro-5H-cyclopenta[b]pyridin-3-yl)methyl)(3,5-bis(trifluoromethyl)benzyl)amino)benzo[d]oxazol-2(3H)-one] | ~16 |
